Test results reported in ChEMBL document CHEMBL5727382, “[1,2,3]triazolo[4,5-D]pyrimidine derivatives with affinity for the type-2 cannabinoid receptor” (2019).
pKi: −log10 of the molar value.

How the values were obtained:
Cannabinoid receptor 1 = Cannabinoid receptor 1 (Homo sapiens, UniProt P21554); experiment: (§1) Radioligand Binding Assay: he affinity of the compounds of the invention for cannabinoid receptors was determined using recommended amounts of membrane preparations (PerkinElmer) of human embryonic kidney (HEK) cells expressing the human CNR1 or CNR2 receptors in conjunction with 1.5 or 2.6 nM [3H]-CP-55,940 (Perkin Elmer) as radioligand, respectively. Binding was performed in binding buffer (50 mM Tris, 5 mM MgCl2, 2.5 mM EDTA, and 0.5% (wt/vol) fatty acid free BSA, pH 7.4 for CB1 receptor and 50 mM Tris, 5 mM MgCl2, 2.5 mM EGTA, and 0.1% (wt/vol) fatty acid free BSA, pH 7.4 for CB2 receptor) in a total volume of 0.2 mL for 1 h at 30° C. shaking. The reaction was terminated by rapid filtration through microfiltration plates coated with 0.5% polyethylenimine (UniFilter GF/B filter plate; Packard). Bound radioactivity was analyzed for Ki using nonlinear regression analysis (Activity Base, ID Business Solution, Limited), with the Kd values for [3H]CP55,940 determined from saturation experiments.
Cannabinoid receptor 2 = Cannabinoid receptor 2 (Homo sapiens, UniProt P34972); experiment: as §1
Chain of Cannabinoid receptor 2 (P34972 whole entry): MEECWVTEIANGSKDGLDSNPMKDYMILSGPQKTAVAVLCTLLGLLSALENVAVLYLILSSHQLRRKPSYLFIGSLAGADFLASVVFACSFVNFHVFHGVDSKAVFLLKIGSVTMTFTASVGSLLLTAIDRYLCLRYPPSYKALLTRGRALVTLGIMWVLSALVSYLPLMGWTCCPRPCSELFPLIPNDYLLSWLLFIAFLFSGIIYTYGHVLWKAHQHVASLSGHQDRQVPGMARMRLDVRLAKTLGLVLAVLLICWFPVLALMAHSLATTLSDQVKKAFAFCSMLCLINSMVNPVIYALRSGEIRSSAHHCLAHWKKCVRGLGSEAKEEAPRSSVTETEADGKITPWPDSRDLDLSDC

Chain of Cannabinoid receptor 1 (P21554 whole entry): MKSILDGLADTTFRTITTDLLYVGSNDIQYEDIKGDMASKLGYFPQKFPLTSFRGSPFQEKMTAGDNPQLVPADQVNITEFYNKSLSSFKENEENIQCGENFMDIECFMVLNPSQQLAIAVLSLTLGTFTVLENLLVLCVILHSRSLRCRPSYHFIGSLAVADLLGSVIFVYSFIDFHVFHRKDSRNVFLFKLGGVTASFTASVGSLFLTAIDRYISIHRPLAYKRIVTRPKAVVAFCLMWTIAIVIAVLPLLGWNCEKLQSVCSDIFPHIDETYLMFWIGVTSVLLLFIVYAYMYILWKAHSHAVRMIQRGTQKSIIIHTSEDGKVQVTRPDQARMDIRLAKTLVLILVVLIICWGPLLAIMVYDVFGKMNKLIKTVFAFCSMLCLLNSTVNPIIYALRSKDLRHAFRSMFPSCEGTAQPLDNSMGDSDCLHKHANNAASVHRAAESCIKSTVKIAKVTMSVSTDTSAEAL

SMILES | pKi (Cannabinoid receptor 1) | pKi (Cannabinoid receptor 2)
CC(C)(C)c1nc(N2CCC(N=C=S)C2)c2nnn(Cc3ccccc3Cl)c2n1 (centres undefined) | 5.25 | 5.87
Cc1nonc1Cn1nnc2c(N3CC[C@@H](S)C3)nc(C(C)(C)C)nc21 (single isomer, unassigned) | 5.10 | 6.19
